Columns and labels:
Type in all cases: cell-based
[1] = test system: colistin-sensitive Pseudomonas aeruginosa strain; assay: PTA staining / SEM backscattered electron image analysis of colistin-treated bacteria over time (FIG. 7); details: colistin 2 mg/L, 37°C, initial concentration 10^6/ml
Description: (§1) A Pseudomonas aeruginosa strain whose colistin sensitivity is known from an MIC value measured by a method of related art and a Pseudomonas aeruginosa strain whose colistin resistance is known are used. A bacterial solution suspended in a medium at initial concentration of 10^6/ml is treated with colistin of 2 mg/L, which is concentration that distinguishes between sensitive bacteria and resistant bacteria by the method of related art, is treated and cultured at 37° C., and a certain amount of the bacterial solution is sampled over time.
A polycarbonate track-etched membrane having a hole diameter of 0.2 μm is used as specimen equipment for the SEM observation of bacteria, and bacteria are uniformly collected in a certain area on the membrane. Conductivity is given to the specimen by pre-vaporizing platinum-palladium on a surface of the membrane.
After washing a medium component on a bacterial collection surface with physiological saline, bacteria are treated and fixed for 5 minutes with a glutaraldehyde fixing solution of 2.5% having a protein cross-linking effect in order to prevent the morphological change of the bacteria. After washing the excess fixing solution with water, the bacteria are treated with the PTA aqueous solution having the weight concentration of 10% for 2 minutes and stained. After washing the excess stain with water, the bacteria are dried on the track-etched membrane to form a specimen for the SEM observation.
SEM observation conditions are set to an acceleration voltage of 5 kV, backscattered electron detection, and magnification of 7,000 times. […]
(§2) Next, SEM observation is performed on each specimen from which the series of backscattered electron image (701) is obtained and a specimen in the control group prepared at the same timing, and twenty-five images per specimen and images of 300 to 500 bacterial cells are acquired. The number of images taken and the number of bacterial cells to be imaged are not limited to the above-described number as long as reproducibility of quantitative analysis can be ensured. […]

[2] = test system: colistin-resistant Pseudomonas aeruginosa strain; assay: PTA staining / SEM backscattered electron image analysis of colistin-treated bacteria over time; details: colistin 2 mg/L, 37°C, after 60 minutes
Description: as §1
A polycarbonate track-etched membrane having a hole diameter of 0.2 μm is used as specimen equipment for the SEM observation of bacteria, and bacteria are uniformly collected in a certain area on the membrane. Conductivity is given to the specimen by pre-vaporizing platinum-palladium on a surface of the membrane. […]
as §2

[3] = test system: Pseudomonas aeruginosa strain; assay: Electronic staining with PTA aqueous solution and SEM observation after antibacterial agent treatment (FIG. 6); details: cultured at 37°C for 30 minutes, 10% PTA aqueous solution, 5 kV backscattered electron image
Description: As an example, in FIG. 6, a Pseudomonas aeruginosa strain is used as a material, bacteria in a control group not treated with the antibacterial agent and bacteria in a test group treated with antibacterial agent colistin are cultured at 37° C. for 30 minutes, the bacteria are collected on a track-etched membrane and fixed with glutaraldehyde of 2.5%, a specimen is prepared by performing electronic staining for 2 minutes by using a PTA aqueous solution having weight concentration of 10% as a stain and a platinum blue aqueous solution as a comparison, and a backscattered electron image is obtained by SEM observation at an acceleration voltage of 5 kV.
In the specimen stained with the PTA aqueous solution, an image of bacteria having low image brightness is observed in the control group, and an image of bacteria having high image brightness is observed in the test group. On the other hand, in the specimen stained with the platinum blue aqueous solution, the image brightness of the bacteria in both the control group and the test group is high, and no significant difference is observed between the control group and the test group.

colistin
ratio of the microbe 1 (corresponds to viability) ([1]; after 8 minutes): 80% | ratio of the microbe 1 (corresponds to viability) ([1]; after 30 minutes): 60% | ratio of the microbe 1 (corresponds to viability) ([1]; after 60 minutes): 0% | ratio of the microbe 1 (corresponds to viability) [2]: about 95% | PTA staining intensity / image brightness of treated bacteria [3]: strong PTA staining

— US20250066835A1 (priority 2021, published 2025)
